According to publication PMC4281022 (Journal of medicinal chemistry, 2013):
“Also recorded” adds a separate entry of the source.

How the values were obtained:
human CB1 [1] = biological target: T1, human CB1 (Homo sapiens, UniProt P21554); experiment: CB1 calcium mobilization assay, antagonist apparent affinity; format: cell-based
human CB1 [2] = biological target: T1, human CB1; experiment: [3H]CP55940 radioligand displacement at CB1, membranes of CHO-K1 cells; format: binding; conditions: ratio of Ki values
CB1 receptor = CB1 receptor (Mus musculus, UniProt P47746); experiment: Tetrad test: attenuation of central effects of Δ^9-THC; format: in vivo; conditions: 10 mg/kg oral, ICR mice
CB1 receptor, sequence (P47746 whole entry): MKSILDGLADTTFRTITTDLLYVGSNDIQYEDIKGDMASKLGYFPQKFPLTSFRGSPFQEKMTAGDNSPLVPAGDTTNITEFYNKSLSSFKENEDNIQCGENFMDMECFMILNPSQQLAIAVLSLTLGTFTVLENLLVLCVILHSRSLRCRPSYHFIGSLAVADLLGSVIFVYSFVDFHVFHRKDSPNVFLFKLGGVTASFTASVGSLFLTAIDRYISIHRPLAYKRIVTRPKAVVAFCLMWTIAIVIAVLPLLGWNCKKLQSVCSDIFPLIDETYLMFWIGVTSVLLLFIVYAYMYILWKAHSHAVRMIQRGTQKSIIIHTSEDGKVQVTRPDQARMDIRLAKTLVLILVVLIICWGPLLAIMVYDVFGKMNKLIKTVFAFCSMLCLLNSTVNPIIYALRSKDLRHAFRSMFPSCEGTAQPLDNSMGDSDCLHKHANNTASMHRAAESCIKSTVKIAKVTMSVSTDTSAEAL

T1 sequence (P21554 whole entry): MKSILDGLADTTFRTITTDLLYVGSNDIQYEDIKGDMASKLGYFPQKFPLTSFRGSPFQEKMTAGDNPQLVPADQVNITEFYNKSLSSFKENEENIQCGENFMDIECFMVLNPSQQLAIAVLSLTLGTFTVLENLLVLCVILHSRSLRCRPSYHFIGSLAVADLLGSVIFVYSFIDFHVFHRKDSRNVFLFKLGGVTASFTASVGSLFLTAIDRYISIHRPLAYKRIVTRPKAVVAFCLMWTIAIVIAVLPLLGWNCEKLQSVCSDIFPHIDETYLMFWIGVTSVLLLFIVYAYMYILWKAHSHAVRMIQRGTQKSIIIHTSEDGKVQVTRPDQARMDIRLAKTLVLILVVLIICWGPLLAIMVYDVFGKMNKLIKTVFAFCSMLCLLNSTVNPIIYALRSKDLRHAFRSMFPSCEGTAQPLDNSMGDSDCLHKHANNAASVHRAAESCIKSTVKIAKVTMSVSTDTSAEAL

**Q.** How did the “Activity in the calcium mobilization assay” value (human CB1 [1]) turn out when `O=S(=O)(NC1CCN(c2ncnc3c2nc(-c2ccccc2Cl)n3-c2ccc(Cl)cc2)CC1)C(F)(F)F` [Compound 18, N-{1-[8-(2-chlorophenyl)-9-(4-chlorophenyl)-9H-purin-6-yl]piperidin-4-yl,}-1,1,1-trifluoromethanesulfonamide] was run?
**A.** Its value is “very active”.

**Q.** Which Kb (human CB1 [1]) does the source give for `O=C(CCN1CCCCC1)NC1CCN(c2ncnc3c2nc(-c2ccccc2Cl)n3-c2ccc(Cl)cc2)CC1` [Compound 15, N-{1-[8-(2-Chlorophenyl)-9-(4-chlorophenyl)-9H-purin-6-yl]piperidin-4-yl}-3-(piperidin-1-yl)propanamide] here?
**A.** Its Kb is 789 nM.

**Q.** For “N-{1-[8-(2-chlorophenyl)-9-(4-chlorophenyl)-9H-purin-6-yl]piperidin-4-yl}aminosulfonamide [Compound 17]”, which “Activity in the calcium mobilization assay” value (human CB1 [1]) is on record?
**A.** Its value is “did not have significant activity”.

**Q.** Which results are given for `CCCCC(=O)NC1CCN(c2ncnc3c2nc(-c2ccccc2Cl)n3-c2ccc(Cl)cc2)CC1` [Compound 9, N-{1-[8-(2-Chlorophenyl)-9-(4-chlorophenyl)-9H-purin-6-yl]piperidin-4-yl}pentanamide]?
**A.** Selectivity for CB1 over CB2 (human CB1 [2]): > 50 fold; Reversal of the cannabimimetic effects of Δ^9-THC (tetrad) (CB1 receptor; 30 min before 30 mg/kg i.v. Δ^9-THC): without efficacy; also recorded: did not reverse any of the cannabimimetic effects of Δ^9-THC; also recorded: could not be reversed; Effects in tetrad tests by itself (CB1 receptor; in combination with vehicle): did not produce any significant effects
